The target in this test is human PCSK9 (Homo sapiens, UniProt Q8NBP7). As to the kind of experiment: PCSK9 ligand binding assay (TR-FRET): interference with binding of human PCSK9 to human LDLR. The note with it: for pIC50: Human PCSK9 Alexa Fluor 647 / Human LDLR extracellular domain-Europium Kryptate; for Max % inhibition: efficacy (Amax), 100% = 1 uM unlabeled human PCSK9, 0% = DMSO. The gist of the method:
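Read-out was TR-FRET ratio (665 nm over 615 nm, 330 nm excitation) between Alexa Fluor 647-human PCSK9 (16 nM added) and Europium Kryptate-human LDLR ectodomain (4 nM added). Compound and PCSK9 were mixed 30 min before LDLR, then incubated 2 h. Inhibition was normalised to DMSO and unlabelled-PCSK9 controls, giving IC50 and Amax.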

For orientation: pIC50 means −log10 of the IC50, conventionally taken in molar units. A low value points to a high IC50.

pIC50: −log10 of the molar value.

Chain of human PCSK9 (Q8NBP7 153-692): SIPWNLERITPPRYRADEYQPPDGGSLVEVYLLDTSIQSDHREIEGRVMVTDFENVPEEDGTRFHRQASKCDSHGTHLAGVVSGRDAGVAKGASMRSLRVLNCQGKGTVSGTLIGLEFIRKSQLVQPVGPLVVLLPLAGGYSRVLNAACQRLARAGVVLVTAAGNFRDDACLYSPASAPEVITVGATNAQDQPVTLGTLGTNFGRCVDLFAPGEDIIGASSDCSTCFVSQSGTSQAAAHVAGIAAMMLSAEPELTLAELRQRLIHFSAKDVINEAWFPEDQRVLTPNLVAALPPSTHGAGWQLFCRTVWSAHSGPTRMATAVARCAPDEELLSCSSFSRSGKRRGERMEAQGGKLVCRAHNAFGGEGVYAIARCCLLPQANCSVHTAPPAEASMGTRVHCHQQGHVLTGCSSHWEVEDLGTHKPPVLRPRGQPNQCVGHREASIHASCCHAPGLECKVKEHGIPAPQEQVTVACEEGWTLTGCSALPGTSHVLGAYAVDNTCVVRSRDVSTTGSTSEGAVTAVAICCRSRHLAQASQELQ
Chain of human PCSK9 (Q8NBP7 31-152 partner limits assumed): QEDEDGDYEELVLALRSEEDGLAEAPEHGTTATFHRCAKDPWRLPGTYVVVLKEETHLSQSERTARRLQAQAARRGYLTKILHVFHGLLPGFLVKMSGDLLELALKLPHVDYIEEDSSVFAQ

Take `COC[C@@H]1NC(=O)[C@H](C)N(Cc2c(F)cc(Cl)cc2Oc2ccc(-n3cnc(CN4CCCC4)c3C)cc2)C(=O)C[C@@H](Cc2ccccc2)C(=O)N2CCC[C@@](Cc3ccc(Cl)cc3)(C2)NC1=O` [Compound 39, (3R, 7S, 10S, 13R)-3-benzyl-6-(4-chloro-2-fluoro-6-(4-(5-methyl-4-(pyrrolidin-1-ylmethyl)-1H-imidazol-1-yl)phenoxy)benzyl)-13-(4-chlorobenzyl)-10-(methoxymethyl)-7-methyl-1,6,9,12-tetraazabicyclo[11.3.1]heptadecane-2,5,8,11-tetraone]: the pIC50 is 9.42 and the Max % inhibition is 113.2%.
For `C/C=C/C[C@@H]1CC(=O)N(Cc2ccc(Cl)cc2Oc2ccc(-c3cnc(CN(C)C)n3C)cc2)[C@@H](C)C(=O)N[C@@H](CO)C(=O)N[C@@]2(Cc3ccc(Cl)cc3)CCCN(C2)C1=O` [Compound 40, (3R,7S,10S,13R)-3-((E)-but-2-en-1-yl)-6-(4-Chloro-2-(4-(2-((dimethylamino)methyl)-1-methyl-1H-imidazol-5-yl)phenoxy)benzyl)-13-(4-chlorobenzyl)-10-(hydroxymethyl)-7-methyl-1,6,9,12-tetraazabicyclo[11.3.1]heptadecane-2,5,8,11-tetraone], in that order: 9.22 and 107.8%.
The like results for `Cc1cccc(C[C@@H]2CC(=O)N(Cc3ccc(Cl)cc3Oc3ccc(-c4cnc(CN(C)C)n4C)cc3)[C@@H](C)C(=O)N[C@@H](CO)C(=O)N[C@@]3(Cc4ccc(Cl)cc4)CCCN(C3)C2=O)n1` [Compound 41, (3R, 7S, 10S, 13R)-6-(4-chloro-2-(4-(2-((dimethylamino)methyl)-1-methyl-1H-imidazol-5-yl)phenoxy)benzyl)-13-(4-chlorobenzyl)-10-(hydroxymethyl)-7-methyl-3-((6-methylpyridin-2-yl)methyl)-1,6,9,12-tetraazabicyclo[11.3.1]heptadecane-2,5,8,11-tetraone] were, in that order, 9.25 and 105.9%.
The like results for `C[C@H]1C(=O)N[C@@H](CO)C(=O)N[C@@]2(Cc3ccc(Cl)cc3)CCCN(C2)C(=O)[C@H](CC2CC2)CC(=O)N1Cc1ccc(Cl)cc1Oc1ccc(-c2cnc(CN(C)C)n2C)cc1` [Compound 42, (3R, 7S, 10S, 13R)-6-(4-chloro-2-(4-(2-((dimethylamino)methyl)-1-methyl-1H-imidazol-5-yl)phenoxy)benzyl)-13-(4-chlorobenzyl)-3-(cyclopropylmethyl)-10-(hydroxymethyl)-7-methyl-1,6,9,12-tetraazabicyclo[11.3.1]heptadecone-2,5,8,11-tetraone] were, in that order, 9.22 and 108.3%.
Regarding `C[C@H]1C(=O)N[C@@H](CO)C(=O)N[C@@]2(Cc3ccc(Cl)cc3)CCCN(C2)C(=O)[C@H](Cc2ccccc2)CC(=O)N1Cc1ccc(Cl)cc1Oc1ccc(-c2cnc(CN(C)C)n2C)c(F)c1` [Compound 43, (3R, 7S, 10S, 13R)-3-benzyl-6-(4-chloro-2-(4-(2-((dimethylamino)methyl)-1-methyl-1H-imidazol-5-yl)-3-fluorophenoxy)benzyl)-13-(4-chlorobenzyl)-10-(hydroxymethyl)-7-methyl-1,6,9,12-tetraazabicyclo[11.3.1]heptadecane-2,5,8,11-tetraone], the pIC50 is 9.39 and the Max % inhibition stood at 110.0%.
The like results for `COC[C@@H]1NC(=O)[C@H](C)N(Cc2ccc(Cl)cc2Oc2ccc(-c3cnc(CN(C)C)n3C)cc2)C(=O)C[C@@H](Cc2cccc(=O)n2C)C(=O)N2CCC[C@@](Cc3ccc(Cl)cc3)(C2)NC1=O` [Compound 44] were, in that order, 8.93 and 105.2%.
For `COC[C@@H]1NC(=O)[C@H](C)N(Cc2c(F)cc(Cl)cc2Oc2ccc(-c3cnc(CNC4CCC4)n3C)cc2)C(=O)C[C@@H](CC(F)(F)F)C(=O)N2CCC[C@@](Cc3ccc(Cl)cc3)(C2)NC1=O` [Compound 45, (3S,7S,10S,13R)-6-(4-Chloro-2-(4-(2-((cyclobutylamino)methyl)-1-methyl-1H-imidazol-5-yl)phenoxy)-6-fluorobenzyl)-13-(4-chlorobenzyl)-10-(methoxymethyl)-7-methyl-3-(2,2,2-trifluoroethyl)-1,6,9,12-tetraazabicyclo[11.3.1]heptadecane-2,5,8,11-tetraone], in that order: 9.09 and 103.7%.
For the compound `C[C@H]1C(=O)N[C@@H](CO)C(=O)N[C@@]2(Cc3ccc(Cl)cc3)CCCN(C2)C(=O)[C@H](Cc2c(F)cc(F)cc2F)CC(=O)N1Cc1ccc(Cl)cc1Oc1ccc(-c2cnc(CN(C)C)n2C)cc1` [Compound 46, (3R, 7S, 10S, 13R)-6-(4-chloro-2-(4-(2-((dimethylamino)methyl)-1-methyl-1H-imidazol-5-yl)phenoxy)benzyl)-13-(4-chlorobenzyl)-10-(hydroxymethyl)-7-methyl-3-(2,4,6-trifluorobenzyl)-1,6,9,12-tetraazabicyclo[11.3.1]heptadecane-2,5,8,11-tetraone], the pIC50 is 9.25 and the Max % inhibition stood at 112.3%.
Take `C[C@H]1C(=O)N[C@@H](CO)C(=O)N[C@@]2(Cc3ccc(Cl)cc3)CCCN(C2)C(=O)[C@H](Cc2cccnc2)CC(=O)N1Cc1ccc(Cl)cc1Oc1ccc(-c2cnc(CN3CCOCC3)n2C)cc1.Cl` [Compound 47, (3R, 7S, 10S, 13R)-6-(4-chloro-2-(4-(1-methyl-2-(morpholinomethyl)-1H-imidazol-5-yl)phenoxy)benzyl)-13-(4-chlorobenzyl)-10-(hydroxymethyl)-7-methyl-3-(pyridin-3-ylmethyl)-1,6,9,12-tetraazabicyclo[11.3.1]heptadecane-2,5,8,11-tetraone]: the pIC50 is 9.09 and the Max % inhibition was 97.0%.
For `C[C@H]1C(=O)N[C@@H](CO)C(=O)N[C@@]2(Cc3ccc(Cl)cc3)CCCN(C2)C(=O)[C@H](Cc2ccc(F)c(F)c2F)CC(=O)N1Cc1c(F)cc(Cl)cc1Oc1ccc(-c2cnc(CN(C)C)n2C)cc1` [Compound 48, (3R, 7S, 10S, 13R)-6-(4-chloro-2-(4-(2-((dimethylamino)methyl)-1-methyl-1H-imidazol-5-yl)phenoxy)-6-fluorobenzyl)-13-(4-chlorobenzyl)-10-(hydroxymethyl)-7-methyl-3-(2,3,4-trifluorobenzyl)-1,6,9,12-tetraazabicyclo[11.3.1]heptadecane-2,5,8,11-tetraone], in that order: 9.22 and 102.8%.
For `C[C@H]1C(=O)N[C@@H](CO)C(=O)N[C@@]2(Cc3ccc(Cl)cc3)CCCN(C2)C(=O)[C@H]([C@@H]2CCc3ccccc32)CC(=O)N1Cc1c(F)cc(Cl)cc1Oc1ccc(-c2cnc(CN(C)C)n2C)cc1` [Compound 49, (3S, 7S, 10S, 13R)-6-(4-chloro-2-(4-(2-((dimethylamino)methyl)-1-methyl-1H-imidazol-5-yl)phenoxy)-6-fluorobenzyl)-13-(4-chlorobenzyl)-3-((S)-2,3-dihydro-1H-inden-1-yl)-10-(hydroxymethyl)-7-methyl-1,6,9,12-tetraazabicyclo[11.3.1]heptadecane-2,5,8,11-tetraone], in that order: 9.20 and 102.2%.
For `C[C@H]1C(=O)N[C@@H](CO)C(=O)N[C@@]2(Cc3ccc(Cl)cc3)CCCN(C2)C(=O)[C@H](Cc2ccccc2)CC(=O)N1Cc1ccc(Cl)cc1Oc1ccc(-c2cnc(CN(C)C)n2C)cc1` [Compound 50, (3R,7S,10S,13R)-3-Benzyl-6-(4-chloro-2-(4-(2-((dimethylamino)methyl)-1-methyl-1H-imidazol-5-yl)phenoxy)benzyl)-13-(4-chlorobenzyl)-10-(hydroxymethyl)-7-methyl-1,6,9,12-tetraazabicyclo[11.3.1]heptadecane-2,5,8,11-tetraone], in that order: 9.29 and 108.7%.
For the compound `CCC[C@@H]1CC(=O)N(Cc2c(F)cc(Cl)cc2Oc2ccc(-c3cnc(CN(C)C)n3C)cc2)[C@@H](C)C(=O)N[C@@H](CO)C(=O)N[C@@]2(Cc3ccc(Cl)cc3)CCCN(C2)C1=O` [Compound 51, (3R, 7S, 10S, 13R)-6-(4-chloro-2-(4-(2-((dimethylamino)methyl)-1-methyl-1H-imidazol-5-yl)phenoxy)-6-fluorobenzyl)-13-(4-chlorobenzyl)-10-(hydroxymethyl)-7-methyl-3-propyl-1,6,9,12-tetraazabicyclo[11.3.1]heptadecane-2,5,8,11-tetraone], the pIC50 was 8.95 and the Max % inhibition came to 101.3%.
For `COC[C@@H]1NC(=O)[C@H](C)N(Cc2ccc(Cl)cc2Oc2ccc(-c3cnc(CN(C)C)n3C)nc2)C(=O)C[C@@H](Cc2ccccc2)C(=O)N2CCC[C@@](Cc3ccc(Cl)cc3)(C2)NC1=O` [Compound 52, (3R, 7S, 10S, 13R)-3-benzyl-6-(4-chloro-2-((6-(2-((dimethylamino)methyl)-1-methyl-1H-imidazol-5-yl)pyridin-3-yl)oxy)benzyl)-13-(4-chlorobenzyl)-10-(methoxymethyl)-7-methyl-1,6,9,12-tetraazabicyclo[11.3.1]heptadecane-2,5,8,11-tetraone], in that order: 9.21 and 112.5%.
The like results for `C[C@H]1C(=O)N[C@@H](CO)C(=O)N(C)[C@@]2(Cc3ccc(Cl)cc3)CCCN(C2)C(=O)[C@H](Cc2ccccc2)CC(=O)N1Cc1ccc(Cl)cc1Oc1ccc(-c2cnc(CN(C)C)n2C)cc1` [Compound 53, (3R, 7S, 10S, 13R)-3-benzyl-6-(4-chloro-2-(4-(2-((dimethylamino)methyl)-1-methyl-1H-imidazol-5-yl)phenoxy)benzyl)-13-(4-chlorobenzyl)-10-(hydroxymethyl)-7,12-dimethyl-1,6,9,12-tetraazabicyclo[11.3.1]heptadecane-2,5,8,11-tetraone] were, in that order, 9.15 and 107.4%.

Values taken from patent US11813306B2, “Cyclic tetramer compounds as proprotein convertase subtilisin/kexin type 9 (PCSK9) inhibitors for the treatment of metabolic disorders” (NOVARTIS AG, priority 2018, dated 2023).
